# Reference: US5212171A, “Pesticidal heterocyclic compounds” (priority 1990, dated 1993)
# Tested on: Spodoptera littoralis
# Assay: whole plant or invertebrate
# Format: in vivo, Spodoptera littoralis (Egyptian cotton leafworm)
# Settings: 168 h, initial test concentration of 0.1% w (1000 ppm), 7 days, read-out: mortality grade S.l.
# Procedure: (§1) Insecticidal activity of compounds of general formula I was assessed against the following pests: […]
# Spodoptera littoralis (Egyptian cotton leafworm)
# The test methods employed for each species appear below. In each test, unless otherwise stated, solutions or suspensions of test compound were made up over a range of concentrations in water (initially 0.1% w) containing 10%w acetone and 0.025% w "TRITON X-100" (trade mark) surface active agent (the condensation product of ethylene oxide with an alkyl phenol). These solutions were sprayed at a rate equivalent to 340 liters per hectare (3.4×10^-5 m^3 /m^2) onto Petri dishes containing either test species per se or diet onto which test species were subsequently introduced, as indicated. In some assays leaf discs infested with test species were sprayed whilst other assays involved the spraying of plants which were infested subsequently with test species after the spray solution had dried. […]
# Mortality assessments were made as indicated below, in terms of percentage mortality figures. In each test a LC50 (the dosage of active material required to kill half of the test species) for the compound was calculated from the mortality figures and compared with the corresponding LC50 for a standard insecticide, ethyl parathion, in the same test. The results are expressed as toxicity indices thus: [formula] […]
row,Compound,mortality at 1000 µg/mL
1,O=C(NC(=O)c1c(F)cccc1F)Nc1ccc2c(c1)COC(c1c(Cl)cccc1Cl)S2 (centres unmarked) [Example 113],70 to 100%
2,O=C(NC(=O)c1c(F)cccc1F)Nc1ccc2c(c1)COC(c1ccc(F)cc1F)S2 (centres unmarked) [Example 108],70 to 100%

# Tested on: Trialeurodes vaporariorum
# Assay: whole plant or invertebrate
# Format: in vivo, Trialeurodes vaporariorum (greenhouse whitefly)
# Settings: 144 h, initial test concentration of 0.1% w (1000 ppm), 6 days, read-out: mortality grade T.v.
# Procedure: as §1
# Trialeurodes vaporariorum (greenhouse whitefly)
# The test methods employed for each species appear below. In each test, unless otherwise stated, solutions or suspensions of test compound were made up over a range of concentrations in water (initially 0.1% w) containing 10%w acetone and 0.025% w "TRITON X-100" (trade mark) surface active agent (the condensation product of ethylene oxide with an alkyl phenol). These solutions were sprayed at a rate equivalent to 340 liters per hectare (3.4×10^-5 m^3 /m^2) onto Petri dishes containing either test species per se or diet onto which test species were subsequently introduced, as indicated. In some assays leaf discs infested with test species were sprayed whilst other assays involved the spraying of plants which were infested subsequently with test species after the spray solution had dried. The tests were all conducted under normal insectary conditions (23° C.±2° C., fluctuating humidity and light).
# Mortality assessments were made as indicated below, in terms of percentage mortality figures. In each test a LC50 (the dosage of active material required to kill half of the test species) for the compound was calculated from the mortality figures and compared with the corresponding LC50 for a standard insecticide, ethyl parathion, in the same test. The results are expressed as toxicity indices thus: [formula] (i) Spodoptera littoralis (7 day)(Sl 7D) Test solutions were sprayed as indicated above onto Petri dishes containing a nutritious diet for Egyptian cotton leafworm larvae. When the spray deposit had dried, each dish was infested with ten 2nd instar larvae. Mortality assessments were made 7 days after spraying.
# (iii) Trialeurodes vaporariorum (Tv)
# French bean plants (Phaseolus vulgaris) with two fully expanded leaves were placed in a breeding culture of T.vaporariorum, also on French bean plants, which were then disturbed to ensure resettlement on the introduced plants. During the subsequent 24 hour period, eggs were deposited and kept at 27° C., with 14 hours photoperiod. All adult whiteflies were then carefully removed, leaving egg samples of a known age. After eight days the majority of eggs had hatched. Leaf discs containing the newly hatched nymphs were then cut from the leaves and transferred to moist filter paper. The discs were examined under a low-powered microscope to determine the exact number of 1st instar nymphs per disc and to remove any unhatched eggs. On average, 70-100 nymphs were found per disc. The discs were transferred into Petri dishes and sprayed with test solutions as described above. After 6 days percentage mortalities were assessed.
row,Compound,mortality at 1000 µg/mL
1,O=C(NC(=O)c1c(F)cccc1F)Nc1ccc2c(c1)COC(c1ccc(Cl)cc1)O2 (centres unmarked) [Example 81],40 to 69%
2,O=C(NC(=O)c1c(F)cccc1F)Nc1ccc2c(c1)CSC(c1ccccc1)O2 (centres unmarked) [Example 104],40 to 69%
3,O=C(NC(=O)c1c(F)cccc1F)Nc1ccc2c(c1)CSC(c1ccc(Cl)cc1Cl)O2 (centres unmarked) [Example 98],40 to 69%
4,O=C(NC(=O)c1c(F)cccc1F)Nc1ccc2c(c1)COC(c1ccccc1Cl)O2 (centres unmarked) [Example 80],40 to 69%
5,Cc1ccccc1C1OCc2cc(NC(=O)NC(=O)c3c(F)cccc3F)ccc2S1 (centres unmarked) [Example 116],40 to 69%
6,O=C(NC(=O)c1c(F)cccc1F)Nc1ccc2c(c1)COC(c1ccc(OC(F)(F)F)cc1)O2 (centres unmarked) [Example 91],40 to 69%
7,O=C(NC(=O)c1c(F)cccc1F)Nc1ccc2c(c1)COC(c1ccccc1Br)S2 (centres unmarked) [Example 115],70 to 100%
8,O=C(NC(=O)c1c(F)cccc1F)Nc1ccc2c(c1)COC(c1ccccc1C(F)(F)F)S2 (centres unmarked) [Example 112],40 to 69%
9,O=C(NC(=O)c1c(F)cccc1F)Nc1ccc2c(c1)CSC(c1ccc(F)cc1F)O2 (centres unmarked) [Example 100],40 to 69%
10,O=C(NC(=O)c1c(F)cccc1F)Nc1ccc2c(c1)COC(c1ccccc1Br)O2 (centres unmarked) [Example 87],40 to 69%
11,O=C(NC(=O)c1c(F)cccc1F)Nc1ccc2c(c1)CSC(c1c(Cl)cccc1Cl)O2 (centres unmarked) [Example 99],40 to 69%
12,O=C(NC(=O)c1c(F)cccc1F)Nc1ccc2c(c1)CSC(c1ccccc1F)O2 (centres unmarked) [Example 96],40 to 69%
13,CCOC(=O)CC1(c2ccccc2)Oc2ccc(NC(=O)NC(=O)c3c(F)cccc3F)cc2O1 (centres unmarked) [Example 140],40 to 69%
14,O=C(NC(=O)c1c(F)cccc1F)Nc1ccc2c(c1)COC(c1ccc(Cl)c(Cl)c1)O2 (centres unmarked) [Example 83],40 to 69%
15,O=C(NC(=O)c1c(F)cccc1F)Nc1ccc2c(c1)OC(c1cccc(Cl)c1)O2 (centres unmarked) [Example 127],40 to 69%
16,O=C(NC(=O)c1c(F)cccc1F)Nc1ccc2c(c1)OC(c1ccccc1)O2 (centres unmarked) [Example 125],40 to 69%
17,O=C(NC(=O)c1c(F)cccc1F)Nc1ccc2c(c1)SC(c1ccccc1F)O2 (centres unmarked) [Example 143],40 to 69%
18,O=C(NC(=O)c1c(F)cccc1F)Nc1ccc2c(c1)COC(c1c(Cl)cccc1Cl)S2 (centres unmarked) [Example 113],40 to 69%
19,CC1(c2ccc(Cl)c(Cl)c2)Oc2ccc(NC(=O)NC(=O)c3c(F)cccc3F)cc2S1 (centres unmarked) [Example 152],40 to 69%
20,Cc1ccc(C2Oc3ccc(NC(=O)NC(=O)c4c(F)cccc4F)cc3CS2)cc1 (centres unmarked) [Example 102],40 to 69%
21,O=C(NC(=O)c1c(F)cccc1F)Nc1ccc2c(c1)OC(c1ccc(F)cc1F)O2 (centres unmarked) [Example 135],40 to 69%
22,O=C(NC(=O)c1c(F)cccc1F)Nc1ccc2c(c1)OC(c1ccccc1Cl)O2 (centres unmarked) [Example 126],40 to 69%
23,O=C(NC(=O)c1c(F)cccc1F)Nc1ccc2c(c1)OC(c1ccc(Cl)cc1)O2 (centres unmarked) [Example 128],40 to 69%
24,O=C(NC(=O)c1c(F)cccc1F)Nc1ccc2c(c1)COC(c1ccc(C(F)(F)F)cc1)O2 (centres unmarked) [Example 88],40 to 69%
25,O=C(NC(=O)c1c(F)cccc1F)Nc1ccc2c(c1)COC(c1c(Cl)cccc1Cl)O2 (centres unmarked) [Example 84],40 to 69%
26,O=C(NC(=O)c1c(F)cccc1F)Nc1ccc2c(c1)CSC(c1ccccc1C(F)(F)F)O2 (centres unmarked) [Example 103],40 to 69%

# Tested on: Tetranychus urticae
# Assay: Acaricidal activity (mite life cycle), Tetranychus urticae
# Format: in vivo, Tetranychus urticae (glasshouse red spider mite)
# Settings: larvae on leaf discs sprayed at 340 liters per hectare; emergence of adults after 7 days
# Procedure: Acaricidal activity of some compounds of formula I was assessed, employing adult female glasshouse red spider mites, Tetranychus urticae (T.u.), by the following procedure.
# 2 cm diameter leaf discs cut from the leaves of French bean plants were placed, underside uppermost, on 5.5 cm diameter filter papers, kept moist by a cotton wool wick dipped in water.
# Each leaf disc was infested with 25 to 30 adult female mites which were removed after 6 hours, leaving bout 50 eggs on each disc. Within 5 days the eggs hatched. The freshly emerged larvae on the leaf discs were sprayed with solutions of test compound made up as in Example 156 above, at a rate equivalent to 340 liters per hectare (3.4×10^-5 m^3 /m^2).
# The discs were thereafter kept under normal laboratory conditions (23° C.±2° C., fluctuating humidity and 16 hours day length). After 7 days assessment was made of the number of mites emerging as adults.
row,Compound,LC50 (% active ingredient in spray)
1,O=C(NC(=O)c1c(F)cccc1F)Nc1ccc2c(c1)COC(c1ccccc1C(F)(F)F)O2 (centres unmarked) [Example 93],0.00022 % active ingredient in spray
2,O=C(NC(=O)c1c(F)cccc1F)Nc1ccc2c(c1)OC(c1ccc(C(F)(F)F)cc1)O2 (centres unmarked) [Example 134],0.09 % active ingredient in spray
3,O=C(NC(=O)c1c(F)cccc1F)Nc1ccc2c(c1)COC(c1ccc(C(F)(F)F)cc1Cl)O2 (centres unmarked) [Example 85],0.00031 % active ingredient in spray
4,O=C(NC(=O)c1c(F)cccc1F)Nc1ccc2c(c1)COC(c1ccccc1Br)O2 (centres unmarked) [Example 87],0.0029 % active ingredient in spray
5,O=C(NC(=O)c1c(F)cccc1F)Nc1ccc2c(c1)SC(c1ccc(Cl)c(Cl)c1)O2 (centres unmarked) [Example 145],0.053 % active ingredient in spray
6,O=C(NC(=O)c1c(F)cccc1F)Nc1ccc2c(c1)SC(c1ccc(F)cc1F)O2 (centres unmarked) [Example 147],0.05 % active ingredient in spray
7,"O=C(NC(=O)c1c(F)cccc1F)Nc1ccc2c(c1)SC(c1ccc(Cl)cc1Cl)O2 (centres unmarked) [Example 142, N-[[[2-(2,4-dichlorophenyl)-1,3-benzoxathiol-5-yl]amino]carbonyl]-2,6-difluorobenzamide]",0.0015 % active ingredient in spray
8,O=C(NC(=O)c1c(F)cccc1F)Nc1ccc2c(c1)COC(c1c(Cl)cccc1Cl)O2 (centres unmarked) [Example 84],0.00036 % active ingredient in spray
9,O=C(NC(=O)c1c(F)cccc1F)Nc1ccc2c(c1)COC(c1cccc(Cl)c1Cl)O2 (centres unmarked) [Example 92],0.085 % active ingredient in spray
10,O=C(NC(=O)c1c(F)cccc1F)Nc1ccc2c(c1)COC(c1ccc(Cl)cc1Cl)O2 (centres unmarked) [Example 82],0.00023 % active ingredient in spray
